From patent US8557848B2, “4,5-ring annulated indole derivatives for treating or preventing of HCV and related viral infections” (Merck Sharp & Dohme Corp., priority 2006, dated 2013)

Legend:
[1] = system: HCV replicon cells (replicon RNA level); experiment: Cell-Based HCV Replicon Assay; conditions: Hepatitis C virus, 72 h; replicon RNA level by real time PCR (Taqman), cells harvested on day 3; read-out: EC50
How it was run: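 Replicon cells at 5000/well received 10 serial 2-fold compound dilutions in 0.5% DMSO, 5% FBS, harvested day 3. Replicon RNA quantified by multiplex Taqman RT-PCR on NS5B versus GAPDH; EC50 and EC90 taken at ΔCT = 1 and 3.2 above baseline from sigmoid fits.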

[2] = target: T1, HCV NS5B polymerase (NS5BΔCT21, from HCV-Con 1 isolate, genotype 1b) (Hepatitis C virus genotype 1b, UniProt Q9WMX2); experiment: HCV NS5B Polymerase Inhibition Assay; format: biochemical; conditions: NS5B polymerase inhibition, [33P]-CTP incorporation, 22° C. for 2 hours; read-out: IC50
T1 construct: A soluble C-terminal 21-amino acid truncated NS5B enzyme form; polyhistidine (C); made in house; host or cells: Escherichia coli
How it was run: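 His-tagged NS5BΔCT21 (30 or 150 nM) with 0.03 μM DCoH75 RNA template, 0.25 mM GAU, 0.1 μM ATP/GTP/UTP, 0.026 μM CTP plus [^33P]-CTP, pH 7.3, 2% DMSO; 2 h at 22° C. Incorporated radioactivity counted after filter capture. IC50 from 10-point 2-fold dilutions (top 200 μM to 1 μM) fitted to Hill equation.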

SMILES | EC50 [1] | IC50 [2]
Cc1ccc(Cn2c(C(=O)NS(=O)(=O)C3CC3)c(-c3ccc[nH]c3=O)c3c4occc4ccc32)c(C)c1 [Compound 152] | < 500 nM | < 25 nM
COc1ccc2cc(Cn3c(C(=O)O)c(-c4ccc[nH]c4=O)c4c5occc5c(F)cc43)c(Cl)nc2c1 [Compound 153] | < 500 nM | < 25 nM
COc1ccc2nc(Cl)c(Cn3c(C(=O)O)c(-c4ccc[nH]c4=O)c4c5occc5c(F)cc43)cc2c1 [Compound 154] | < 500 nM | < 25 nM
Cc1cccc(Cn2c(C(=O)NS(=O)(=O)C3CC3)c(-c3ccc[nH]c3=O)c3c4occc4ccc32)c1F [Compound 155] | < 500 nM | < 25 nM
CC(C)n1ncc2cc(Cn3c(C(=O)O)c(-c4ccc[nH]c4=O)c4c5occc5c(F)cc43)c(Cl)nc21 [Compound 156] | 500 to 1500 nM | < 25 nM
Cc1cccc(Cn2c(C(=O)NS(=O)(=O)C(C)C)c(-c3ccc[nH]c3=O)c3c4occc4ccc32)c1F [Compound 158] | 500 to 1500 nM | < 25 nM
O=C(O)c1c(-c2ccc[nH]c2=O)c2c3occ(Cl)c3c(F)cc2n1Cc1cc2ccccc2nc1Cl [Compound 159] | < 500 nM | < 25 nM
CS(=O)(=O)NC(=O)c1c(-c2ccc[nH]c2=O)c2c3occc3ccc2n1Cc1cc(C(N)=O)ccc1F [Compound 161] | < 500 nM | < 25 nM
O=C(NS(=O)(=O)C1CC1)c1c(-c2ccc[nH]c2=O)c2c3occc3c(F)cc2n1Cc1ccccc1F [Compound 162] | < 500 nM | < 25 nM
CC(C)S(=O)(=O)NC(=O)c1c(-c2ccc[nH]c2=O)c2c3occc3c(F)cc2n1Cc1ccccc1F [Compound 163] | < 500 nM | < 25 nM
O=C(NS(=O)(=O)C1CC1)c1c(-c2ccc[nH]c2=O)c2c3c(ccc2n1Cc1cc(F)ccc1F)CCO3 [Compound 164] | < 500 nM | < 25 nM
CS(=O)(=O)NC(=O)c1c(-c2ccc[nH]c2=O)c2c3occc3c(F)cc2n1Cc1csc(C(N)=O)c1 [Compound 165] | < 500 nM | < 25 nM
CS(=O)(=O)NC(=O)c1c(-c2ccc[nH]c2=O)c2c3c(c(F)cc2n1Cc1csc(C(N)=O)c1)CCO3 [Compound 167] | < 500 nM | < 25 nM
CSc1ccc2cc(Cn3c(C(=O)O)c(-c4ccc[nH]c4=O)c4c5occc5c(F)cc43)c(Cl)nc2c1 [Compound 168] | < 500 nM | < 25 nM
CS(=O)(=O)NC(=O)c1c(-c2ccc[nH]c2=O)c2c3occc3c(F)cc2n1Cc1ccc2[nH]c(N)nc2c1 [Compound 169] | < 500 nM | < 25 nM
CS(=O)(=O)NC(=O)c1c(-c2ccc[nH]c2=O)c2c3occc3c(F)cc2n1Cc1ccc2onc(N)c2c1 [Compound 170] | < 500 nM | < 25 nM
Cc1cccc(Cn2c(C(=O)NS(=O)(=O)C3CC3)c(-c3ccc[nH]c3=O)c3c4occc4c(F)cc32)c1F [Compound 171] | < 500 nM | < 25 nM
C[C@@H]1COc2c1ccc1c2c(-c2ccc[nH]c2=O)c(C(=O)NS(=O)(=O)C2CC2)n1Cc1cc(F)ccc1F [Compound 173] | < 500 nM | < 25 nM
O=C(NS(=O)(=O)C1CC1)c1c(-c2ccc[nH]c2=O)c2c3occc3c(F)cc2n1Cc1cc(=O)[nH]cc1F [Compound 174] | < 500 nM | < 25 nM
CS(=O)(=O)NC(=O)c1c(-c2ccc[nH]c2=O)c2c3occc3c(F)cc2n1Cc1cc(C(N)=O)ccc1F [Compound 175] | < 500 nM | < 25 nM
O=C(NS(=O)(=O)C1CC1)c1c(-c2ccc[nH]c2=O)c2c3occc3c(F)cc2n1Cc1cc(F)ccc1F [Compound 177] | < 500 nM | < 25 nM
O=C(NS(=O)(=O)C1CC1)c1c(-c2ccc[nH]c2=O)c2c3occc3cc(F)c2n1Cc1cc(F)ccc1F [Compound 178] | < 500 nM | < 25 nM
CS(=O)(=O)NC(=O)c1c(-c2ccc[nH]c2=O)c2c3occc3c(F)cc2n1Cc1cc([N+](=O)[O-])ccc1F [Compound 179] | < 500 nM | < 25 nM

SMILES | EC50 [1] | IC50 [2]
CS(=O)(=O)NC(=O)c1c(-c2ccc[nH]c2=O)c2c3occc3ccc2n1Cc1cc2ccccc2nc1Cl [Compound 180] | < 500 nM | < 25 nM
CS(=O)(=O)NC(=O)c1c(-c2ccc[nH]c2=O)c2c3occc3c(F)cc2n1Cc1cc2nc[nH]c2cc1Cl [Compound 182] | < 500 nM | < 25 nM
NC(=O)c1cc(Cn2c(C(=O)NS(=O)(=O)C3CC3)c(-c3ccc[nH]c3=O)c3c4occc4c(F)cc32)cs1 [Compound 183] | < 500 nM | < 25 nM
O=c1[nH]cccc1-c1c(C2=NS(=O)(=O)c3ccccc3N2)n(Cc2ccccc2F)c2cc(F)c3ccoc3c12 [Compound 184] | < 500 nM | < 25 nM
NC(=O)c1cc(Cn2c(C(=O)NS(=O)(=O)C3CC3)c(-c3ccc[nH]c3=O)c3c4c(c(F)cc32)CCO4)cs1 [Compound 185] | < 500 nM | < 25 nM
CC(C)S(=O)(=O)NC(=O)c1c(-c2ccc[nH]c2=O)c2c3occc3c(F)cc2n1Cc1csc(C(N)=O)c1 [Compound 186] | < 500 nM | < 25 nM
CC(C)S(=O)(=O)NC(=O)c1c(-c2ccc[nH]c2=O)c2c3c(c(F)cc2n1Cc1csc(C(N)=O)c1)CCO3 [Compound 188] | < 500 nM | < 25 nM
O=C(NS(=O)(=O)C1CC1)c1c(-c2ccc[nH]c2=O)c2c3occc3c(F)cc2n1Cc1ccc2[nH]c(=O)[nH]c2c1 [Compound 190] | < 500 nM | < 25 nM
COC(=O)c1ccc(F)c(Cn2c(C(=O)NS(=O)(=O)C3CC3)c(-c3ccc[nH]c3=O)c3c4occc4ccc32)c1 [Compound 192] | < 500 nM | < 25 nM
CS(=O)(=O)NC(=O)c1c(-c2ccc[nH]c2=O)c2c3occc3c(F)cc2n1Cc1cc(Cl)nc2ccccc12 [Compound 193] | 500 to 1500 nM | < 25 nM
CS(=O)(=O)NC(=O)c1c(-c2ccc[nH]c2=O)c2c3occc3c(F)cc2n1Cc1cc2ccccc2nc1Cl [Compound 194] | < 500 nM | < 25 nM
NC(=O)c1ccc(F)c(Cn2c(C(=O)NS(=O)(=O)C3CC3)c(-c3ccc[nH]c3=O)c3c4occc4c(F)cc32)c1 [Compound 195] | < 500 nM | < 25 nM
CS(=O)(=O)NC(=O)c1c(-c2ccc[nH]c2=O)c2c3c(c(F)cc2n1Cc1cc2ccccc2nc1Cl)CCO3 [Compound 196] | < 500 nM | < 25 nM
NC(=O)c1cnc(F)c(Cn2c(C(=O)NS(=O)(=O)C3CC3)c(-c3ccc[nH]c3=O)c3c4occc4c(F)cc32)c1 [Compound 197] | < 500 nM | < 25 nM
O=C(NS(=O)(=O)C1CC1)c1c(-c2ccc[nH]c2=O)c2c3occc3c(F)cc2n1Cc1cc([N+](=O)[O-])ccc1F [Compound 198] | < 500 nM | < 25 nM
CC(C)S(=O)(=O)NC(=O)c1c(-c2ccc[nH]c2=O)c2c3occc3c(F)cc2n1Cc1cc(C(N)=O)ccc1F [Compound 199] | < 500 nM | < 25 nM
NC(=O)c1cnc(F)c(Cn2c(C(=O)NS(=O)(=O)C3CC3)c(-c3ccc[nH]c3=O)c3c4c(c(F)cc32)CCO4)c1 [Compound 200] | < 500 nM | < 25 nM
O=C(NS(=O)(=O)C1CC1)c1c(-c2ccc[nH]c2=O)c2c3occc3ccc2n1Cc1cc2ccccc2nc1Cl [Compound 201] | < 500 nM | < 25 nM
Nc1ccccc1S(=O)(=O)NC(=O)c1c(-c2ccc[nH]c2=O)c2c3occc3c(F)cc2n1Cc1ccccc1F [Compound 202] | < 500 nM | < 25 nM
CN(C)S(=O)(=O)NC(=O)c1c(-c2ccc[nH]c2=O)c2c3occc3ccc2n1Cc1cc2ccccc2nc1Cl [Compound 204] | < 500 nM | < 25 nM
O=C(NS(=O)(=O)C1CC1)c1c(-c2ccc[nH]c2=O)c2c3occc3c(F)cc2n1Cc1cc2nc[nH]c2cc1Cl [Compound 205] | < 500 nM | < 25 nM
CS(=O)(=O)NC(=O)c1c(-c2ccc[nH]c2=O)c2c3occc3c(F)cc2n1Cc1cc(C(=O)NC2CC2)ccc1F [Compound 206] | 500 to 1500 nM | < 25 nM
